Literature values as cited in article PMC10957545, “Anti-diabetic and anti-inflammatory bioactive hits from Coriaria intermedia Matsum. stem and Dracontomelon dao (Blanco) Merr. & Rolfe bark through bioassay-guided fractionation and liquid chromatography-tandem mass spectrometry” (Frontiers in Pharmacology, 2024).
Converted amounts (≈) assume the structure as drawn. Read-outs that look alike come from different tables or passages of the source.

What was measured:
[1] = tested on: lipopolysaccharide (LPS)-induced nitric oxide (NO), prostaglandin E2 (PGE2), and interleukin-6 (IL-6) production; set-up: method as in BenSaad et al., 2017; conditions: ref BenSaad et al., 2017
beta pancreatic cells = tested on: beta pancreatic cells; set-up: method as in Xu et al., 2018; conditions: ref Xu et al., 2018
colon inflammation = tested on: colon inflammation; set-up: method as in Guri et al., 2011; conditions: abscisic acid intake; ref Guri et al., 2011
glucose uptake = tested on: glucose uptake; set-up: method as in Xu et al., 2018; conditions: ref Xu et al., 2018
neuroinflammation = tested on: neuroinflammation; set-up: method as in Jeon et al., 2020; conditions: abscisic acid intake; ref Jeon et al., 2020
[2] = tested on: ovalbumin-induced asthmatic mice; set-up: method as in Jin and Yi, 2023; conditions: via the AMP-activated protein kinase pathway; ref Jin and Yi, 2023
[3] = tested on: proinflammatory cytokines and mediators; cyclooxygenase-2 expression; set-up: method as in Zhao et al., 2008, as cited in Li et al. (2018); conditions: ref Zhao et al., 2008, as cited in Li et al. (2018)
[4] = tested on: mice fed with a high fat diet (HFD); set-up: method as in Liao et al., 2022; conditions: ref Liao et al., 2022
[5] = tested on: different cancer cell lines; set-up: method as in Li et al., 2018; conditions: both in vitro and in vivo; ref Li et al., 2018
[6] = tested on: spike receptor binding domain (spike-RBD) of SARS-CoV-2 virus / human angiotensin-converting enzyme 2 (hACE2); set-up: method as in Yang et al., 2021; conditions: dose-dependent manner; ref Yang et al., 2021
[7] = tested on: streptozotocin-induced diabetic rats; set-up: method as in Nandini and Naik, 2019; conditions: treated orally, end of the study; ref Nandini and Naik, 2019
[8] = tested on: p38, ERK, and PI 3-kinase/Akt and ROS accumulation; set-up: method as in Moon et al., 2018; conditions: ref Moon et al., 2018
[9] = tested on: LPS-induced nuclear factor kappa B (NF-κB) activation; set-up: method as in Oh et al., 2010; conditions: ref Oh et al., 2010
α-amylase = tested on: α-amylase; set-up: method as in Kato et al., 2008; conditions: at a concentration of 400 µM; ref Kato et al., 2008
sucrase = tested on: sucrase; set-up: method as in Kato et al., 2008; conditions: at a concentration of 400 µM; ref Kato et al., 2008
[10] = tested on: advanced glycation end products formation; set-up: method as in Jung et al., 2012; conditions: ref Jung et al., 2012; read-out: inhibition of advanced glycation end products formation, IC50
maltase = tested on: maltase; set-up: method as in Kato et al., 2008; conditions: at a concentration of 400 µM; ref Kato et al., 2008
[11] = isolated from Terminalia macroptera leaves, ref Pham et al., 2014

O=c1oc2c(O)c(O)cc3c(=O)oc4c(O)c(O)cc1c4c23 [Compound 1, ellagic acid]
effect on LPS-induced NO, PGE2 and IL-6 production [1]: inhibition | IC50 AGLUC (α-glucosidase (AGLUC); previously reported, ref You et al., 2012): 2.18 [You et al. (2012)] µg/mL

O=c1c(O[C@@H]2O[C@H](CO)[C@H](O)[C@H](O)[C@H]2O)c(-c2ccc(O)c(O)c2)oc2cc(O)cc(O)c12 [hyperin, reference compound]
IC50 AGLUC (α-glucosidase (AGLUC); ref Zhang et al., 2013): 19.26 µg/mL (≈ 41.5 µM)

Oc1cccc(O)c1O [Compound 14, pyrogallol]
IC50 LOX (15-lipoxygenase-1 (LOX); mM value given in µg/mL, ref Yasumoto et al. (1970)): 1.097 × 10^3 [Yasumoto et al. (1970)] µg/mL | IC50 (15-lipoxygenase-1 (LOX); ref Yasumoto, Yamamoto, and Mitsuda, 1970): 8700 µM

CC1=CC(=O)CC(C)(C)[C@@]1(O)/C=C/C(C)=C\C(=O)O [Compound 9, abscisic acid]
effect on insulin production in beta pancreatic cells (beta pancreatic cells): can stimulate | effect on colon inflammation (colon inflammation): reduces | effect on glucose uptake in vitro (glucose uptake): regulates | effect on neuroinflammation (neuroinflammation): reduces

O=C(O[C@@H]1O[C@@H]2COC(=O)c3cc(O)c(O)c(O)c3-c3c(cc(O)c(O)c3O)C(=O)O[C@H]([C@H]1O)[C@@H]2O)c1cc(O)c(O)c(O)c1 [Compound 2, corilagin]
airway inflammation and collagen deposition [2]: reduce | effect on cyclooxygenase-2 expression ([3]; protein and gene level): reduce | effect on production of proinflammatory cytokines and mediators [3]: significantly reduce | glucose intolerance and insulin resistance ([4]; HFD-fed mice): improve | plasma lipid concentrations ([4]; HFD-fed mice): improved | HFD-induced accumulation of fat in the liver and liver injury [4]: reduce | antitumor activities [5]: exhibit antitumor activities | IC50 (15-lipoxygenase-1 (LOX); [11]): 41 ± 4 µM | IC50 LOX (15-lipoxygenase-1 (LOX); µM value given in µg/mL, ref Pham et al., 2014): 26.01 ± 2.5 [Pham et al. (2014)] µg/mL | binding of spike-RBD to hACE2 [6]: inhibit | fasting blood glucose levels compared to diabetic control rats [7]: reduced | toxic effects on normal cells or tissues (normal cells or tissues): almost no toxic effects | IC50 (α-glucosidase (AGLUC); [11]): 2.58 ± 0.08 µM

CCCCCCCC/C=C\CCCCCCCC(N)=O [Compound 6, oleamide]
effect on p38, ERK, and PI 3-kinase/Akt and ROS accumulation [8]: suppression | IC50 AGLUC (α-glucosidase (AGLUC); ref Fang et al., 2022): 30.69 ± 1.47 [Fang et al. (2022)] µg/mL | effect on LPS-induced NF-κB activation [9]: inhibition

COc1cc2oc(=O)ccc2cc1O [Compound 4, isoscopoletin]
% inhibition of α-amylase (α-amylase): 0.2% | % inhibition of sucrase (sucrase): 20.9% | IC50 (15-lipoxygenase-1 (LOX); ref Deng et al., 2007): 15.1 µM | IC50 LOX (15-lipoxygenase-1 (LOX); µM value given in µg/mL, ref Deng et al., 2007): 2.902 [Deng et al. (2007)] µg/mL | IC50 [10]: 18.8 ± 0.5 µM | % inhibition of maltase (maltase): 32.2%
